In patent US20200289482A1, “CYSTIC FIBROSIS TRANSMEMBRANE CONDUCTANCE REGULATOR MODULATORS FOR TREATING AUTOSOMAL DOMINANT POLYCYSTIC KIDNEY DISEASE” (The Johns Hopkins University, priority 2017, published 2020):

Tests used:
Hsp40 = experiment: Western blot of Hsp40 in kidney tissue lysates; assay type: in vivo, mouse; settings: cyst induced pkd−/− mice, VX-809 30 mg/kg BW
Procedure: FIG. 7A, FIG. 7B, FIG. 7C, FIG. 7D, FIG. 7E, and FIG. 7F show chaperone expression is altered in mice by VX-809. (FIG. 7A-FIG. 7B) Representative Western blot images of HSP27, 70, 90 and HSP40 in lysates of kidney tissue from no cyst induced (ND), cyst induced with Doxycycline (D) or cyst induced pkd−/− mice treated with VX-809 (D+VX-809) 30 mg/kg BW. (FIG. 7C, FIG. 7D, FIG. 7E, and FIG. 7F) Columns represent averages±standard errors of HSP27, 70, 90 and HSP40 expression. Data were analyzed by non-parametric t-test. n=4 for each treated and control groups. Black lines between lanes represent representative experiments from the same gel. *P<0.05; **P<0.01; To facilitate their growth in the kidney, cysts have developed an altered network of proteins that most likely serves to protect them from stress (34). Next, it was determined whether VX-809 would alter the levels of Hsps in pkd−/− mice and in PN cells. […] Hsp 27, 70 and 90 are all elevated in cystic kidneys compared to normal controls. […] There is no change in Hsp 40. […] Both sets of data are consistent with an alteration in the heat shock response to cyst growth.

[1] = test system: cAMP in PC1 conditional knockout mouse kidneys; experiment: cAMP levels in mouse kidney tissue; assay type: in vivo; settings: kidney samples from mice of FIG. 1 (VX-809 30 mg/kg)
Procedure: FIG. 4A, FIG. 4B, FIG. 4C, FIG. 4D, and FIG. 4E show (FIG. 4A-FIG. 4B) cAMP levels are reduced by VX-809. (FIG. 4A) cAMP levels in mouse tissue were reduced by VX-809. The kidney samples (n=6) analyzed were taken from those depicted in FIG. 1. (FIG. 4B) Confluent PN and PH cells were treated with VX-809 (10 μM) or DMSO for 16 h and then treated with forskolin (100 μM) for 30 min before the cells were harvested for the assay. Columns represent means±SEM. Statistical analysis was performed using a two-tailed Student's t-test. Each set of data is from three individual wells; Note that resting cAMP is greater in PN vs PH cells as previously shown (25). Also note that forskolin caused a large increase in cAMP. […] The data were analyzed by non-parametric t-test. […]
It has been shown previously in both animal and cell culture models of ADPKD that cells lacking functional PC1 have elevated cAMP levels when compared to normal (24). To assess the effect of CFTR correctors, cAMP activity was measured in PC1 conditional knockout mouse kidneys and in PN cells that were either left untreated or treated with VX-809. […]
Confluent cells were treated with VX-809 (10 μM) or DMSO for 16 h before being harvested for assay. Cyclic AMP levels were measured with a direct cAMP Enzyme Immunoassay Kit (Sigma, # CA200) according to the manufacturer's protocol. The results are expressed as pmole/ml. […]

Hsp27 = experiment: Cycloheximide chase, disappearance of Hsp27 in PN cells; assay type: cell-based, mouse; settings: VX-809 10 μM with cycloheximide 25 μM
Procedure: FIG. 9A, FIG. 9B, FIG. 9C, FIG. 9D, FIG. 9E, FIG. 9F, FIG. 9G, and FIG. 9H show Hsp27, HSp70, and Hsp90 expression in PN cells treated with VX-809 and/or cycloheximide. (A) Pkd1 null (PN) cells were treated with VX-809 (10 μM) and/or with cycloheximide (25 μM) for indicated time points before being harvested for the assay. (FIG. 9A) Western blot showing expression of Hsp27, Hsp70, and Hsp90 in VX-809-(16 h), cycloheximide-treated, or control PN cells. ((FIG. 9B. (FIG. 9C, and (FIG. 9D) Columns represent averages±standard errors of Hsp27, Hsp70, and Hsp90 expression in cells treated with VX-809 and/or cycloheximide. ((FIG. 9E) Western blot showing expression of Hsp27, Hsp70, and Hsp90 in PN cells treated with VX-809+cycloheximide or control PN cells. ((FIG. 9F, (FIG. 9G, and (FIG. 9H) Columns represent averages±standard errors of Hsp27, Hsp70, and Hsp90 expression in cells treated only with cycloheximide or in control PN cells. Data were analyzed by non-parametric t-test. The experiments were repeated 3-5 times. *P<0.05, **P<0.01;
To gain more insight into the mechanism whereby VX-809 alters Hsp protein levels, translation was inhibited by using cycloheximide (35) and the disappearance of the three Hsps was monitored. […] Hsp 90 was reduced by approximately 25%, and Hsp27 was unchanged.

AC6 = experiment: Western blot of adenylyl cyclase 6 expression; assay type: cell-based, mouse; settings: PN cells treated with VX-809
Procedure: FIG. 4A, FIG. 4B, FIG. 4C, FIG. 4D, and FIG. 4E show (FIG. 4A-FIG. 4B) cAMP levels are reduced by VX-809. (FIG. 4A) cAMP levels in mouse tissue were reduced by VX-809. The kidney samples (n=6) analyzed were taken from those depicted in FIG. 1. (FIG. 4B) Confluent PN and PH cells were treated with VX-809 (10 μM) or DMSO for 16 h and then treated with forskolin (100 μM) for 30 min before the cells were harvested for the assay. Columns represent means±SEM. Statistical analysis was performed using a two-tailed Student's t-test. Each set of data is from three individual wells; Note that resting cAMP is greater in PN vs PH cells as previously shown (25). Also note that forskolin caused a large increase in cAMP. A smaller increase occurred with IBMX. However, the increase induced by forskolin alone was similar to that by IBMX plus forskolin. […] (FIG. 4C, FIG. 4D, and FIG. 4E) Adenylyl cyclase expression. (FIG. 4C) Western blot showing the expression of adenylyl cyclase (AC) 6 and AC3 in treated and control PN cells. (FIG. 4D-FIG. 4E) Columns represent means±SEM of the AC3 and AC6 expression. The data were analyzed by non-parametric t-test. The experiment was repeated four times. For all graphs, *P<0.05, **P<0.01, and ***P<0.001;
There are two classes of adenylyl cyclases that are regulated by intracellular Ca^2+: one class is activated, and the other inhibited. […]

NHE3 = NHE3 expression in PN cells; assay type: cell-based, mouse; settings: PN cells treated with VX-809 vs PN cells
Procedure: FIG. 14A and FIG. 14B show NHE3 expression in PN cells treated with VX-809.
The expression and activity of […] were evaluated. Specifically, NHE3 expression was evaluated in PN cells that were treated with VX-809. […] was also studied in PN, PH, and PN cells treated with VX-809. […] Next, NHE3 activity was evaluated in PN/PH cells or PN cells treated with VX-809. NHE3 activity was increased in PN cells treated with VX-809, as compared to PN cells (FIG. 16A). NHE3 activity was higher in control PH cells than in PN cells (FIG. 16B). […] NHE3 activity was increased in both VX-809 treated PN cells and control PH cells, as compared to control PN cells (FIG. 16C).

lumacaftor [VX-809]
Hsp40 expression in kidneys (Hsp40): no change
cAMP levels in mouse kidneys [1]: significantly decreased the cAMP levels
Hsp27 level over the 8-h period (Hsp27): unchanged
AC6 regulation (expression) (AC6): not AC6
NHE3 expression (NHE3): significantly increased
